In ChEMBL document CHEMBL5303304, “EUbOPEN Chemogenomics Library - IncuCyte” (2023):

Experiments:
Format in all cases: toxicity, cell-based
U2OS = experiment: Incucyte cell viability with U2OS; settings: human, 10 µM, compound concentration 10 uM
Fibroblast = experiment: Incucyte cell viability with human fibroblast; settings: 10 µM, compound concentration 10 uM
HEK-293T = experiment: Incucyte cell viability with HEK293T; settings: human, 10 µM, compound concentration 10 uM
Also: unitless GR value; below 1 slowed growth and below 0 cell loss.

Row | Compound | Growth Rate (U2OS; 6 h, replicate number 1) | Growth Rate (U2OS; 12 h, replicate number 1) | Growth Rate (U2OS; 18 h, replicate number 1) | Growth Rate (U2OS; 18 h, replicate number 2) | Growth Rate (U2OS; 24 h, replicate number 1) | Growth Rate (U2OS; 24 h, replicate number 2) | Growth Rate (Fibroblast; 0 h, replicate number 1) | Growth Rate (Fibroblast; 0 h, replicate number 2) | Growth Rate (HEK-293T; 0 h, replicate number 1) | Growth Rate (U2OS; 6 h, replicate number 2) | Growth Rate (U2OS; 12 h, replicate number 2) | Growth Rate (Fibroblast; 6 h, replicate number 1) | Growth Rate (Fibroblast; 6 h, replicate number 2) | Growth Rate (Fibroblast; 12 h, replicate number 1) | Growth Rate (Fibroblast; 12 h, replicate number 2) | Growth Rate (Fibroblast; 18 h, replicate number 1) | Growth Rate (Fibroblast; 24 h, replicate number 2) | Growth Rate (U2OS; 0 h, replicate number 1) | also measured
1 | O=C(Nc1ccnc(NC(=O)C2CC2)c1)c1c(Cl)cccc1Cl | 0.46 | -0.05 | 0.81 | 0.93 | 0.98 | 0.84 | -0.14 | -0.81 | -0.99 |  |  |  |  |  |  |  |  |  | 
2 | N#Cc1cccc(-c2c[nH]c3ncnc(N4CCOCC4)c23)c1 | 0.91 | 0.88 | 0.31 | 0.94 | 0.97 | 0.98 | -0.42 | -0.76 | -0.86 |  |  |  |  |  |  |  |  |  | 
3 | Nc1nccc(-c2c(-c3ccc(F)cc3)ncn2C2CCN(Cc3ccon3)CC2)n1 | 0.99 |  |  | 0.72 |  | 0.66 |  | -0.11 | 0.09 | 0.8 | 0.75 |  |  |  |  |  |  |  | Growth Rate (HEK-293T; 6 h, replicate number 2): 0.91
4 | Cc1ccc(S(=O)(=O)O)cc1.Cn1cc(Nc2nccc(N3CC4CCC(C3)N4C(=O)[C@@H]3CC3(F)F)n2)cn1 | 0.03 | -0.28 |  | 0.84 |  | 0.8 | 0.69 | 0.55 | 0.13 | 0.95 | 0.96 | 0.01 | 0.12 | 0.8 | 0.69 | 0.4 |  |  | Growth Rate (U2OS; 0 h, replicate number 2): 0.58; Growth Rate (Fibroblast; 18 h, replicate number 2): 0.88; Growth Rate (Fibroblast; 24 h, replicate number 1): 1; Growth Rate (HEK-293T; 6 h, replicate number 2): 0.93; Growth Rate (HEK-293T; 18 h, replicate number 2): 0.98
5 | COc1ccc(C(=O)N[C@H](C)c2cccc(C(=O)Nc3nc4c(s3)CN(C)CC4)c2)cc1C.O=C(O)C(F)(F)F |  |  |  | 0.97 |  | 0.88 | 0.21 | -0.72 | -0.36 |  |  |  |  |  |  |  |  |  | 
6 | CC(=O)c1ccc2c(c1)/C(=C(/Nc1cccc(C#N)c1)c1ccc3c(c1)OCCO3)C(=O)N2 |  |  | 0.73 | 0.5 | 0.52 | 0.43 | 0.26 | -0.78 | -0.8 |  | 0.72 |  |  |  |  |  | 0.84 |  | Growth Rate (HEK-293T; 6 h, replicate number 1): 0.26; Growth Rate (HEK-293T; 6 h, replicate number 2): 0.65; Growth Rate (HEK-293T; 12 h, replicate number 1): -0.22; Growth Rate (HEK-293T; 12 h, replicate number 2): 0.12; Growth Rate (HEK-293T; 18 h, replicate number 1): -0.15; Growth Rate (HEK-293T; 18 h, replicate number 2): -0.03; Growth Rate (HEK-293T; 24 h, replicate number 1): -0.16; Growth Rate (HEK-293T; 24 h, replicate number 2): -0.02
7 | COc1cc2ncnc(N[C@H](C)c3ccccc3)c2cc1OC1CCN(S(C)(=O)=O)CC1.Cl | 0.77 | 0.89 | 0.8 |  | 0.74 |  | 0.4 |  | 0.37 |  |  |  | 0.39 |  | 0.61 |  |  | 0.65 | Growth Rate (HEK-293T; 0 h, replicate number 2): -0.04; Growth Rate (HEK-293T; 12 h, replicate number 2): 0.89
8 | COc1c(NC(=O)c2cc3cccc(Oc4ccnc(C(=O)N5CCN(C)CC5)c4)c3n2C)cc(C(C)(C)C)cc1NS(C)(=O)=O | 0.82 | 0.79 | 0.83 | 0.7 | 0.84 | 0.69 |  |  | 0.87 | 0.58 | 0.69 | 0.02 | 0.43 |  | 0.98 |  |  | -0.03 | Growth Rate (U2OS; 0 h, replicate number 2): 0.57; Growth Rate (HEK-293T; 0 h, replicate number 2): -0.84; Growth Rate (HEK-293T; 6 h, replicate number 1): 0.93; Growth Rate (HEK-293T; 6 h, replicate number 2): 0.57; Growth Rate (HEK-293T; 12 h, replicate number 2): 0.77; Growth Rate (HEK-293T; 18 h, replicate number 2): 0.93
9 | C[C@H](CCOc1cccc(CC(=O)O)c1)N(Cc1cccc(C(F)(F)F)c1Cl)CC(c1ccccc1)c1ccccc1.Cl | 0.93 |  | 0.83 |  | 0.93 |  | 0.93 |  | -0.43 | 1 |  | 0.72 | 0.01 | 0.72 | 0.55 | 0.83 | 0.52 | 0.53 | Growth Rate (U2OS; 0 h, replicate number 2): -0.96; Growth Rate (Fibroblast; 18 h, replicate number 2): 0.23; Growth Rate (Fibroblast; 24 h, replicate number 1): 0.64; Growth Rate (HEK-293T; 18 h, replicate number 2): 1
10 | COc1cc(-c2cn[nH]c2)ccc1C(=O)Nc1ccc2c(c1)CCNCC2.Cl |  | 0.82 | 0.75 | 0.59 | 0.87 | 0.63 | 0.68 | 0.05 | -0.67 | 0.77 | 0.78 |  |  |  |  |  |  |  | 
11 | C[S+]([O-])c1ccc(-c2nc(-c3cccc(I)c3)c(-c3ccncc3)[nH]2)cc1 (stereo unspecified) |  |  | 0.97 | 0.75 | 1 | 0.65 |  |  | -0.57 | 0.79 | 0.8 |  | 0.66 |  |  |  |  | -0.99 | Growth Rate (HEK-293T; 0 h, replicate number 2): -1; Growth Rate (HEK-293T; 12 h, replicate number 1): 0.87; Growth Rate (HEK-293T; 18 h, replicate number 1): 0.99; Growth Rate (HEK-293T; 24 h, replicate number 1): 0.99
12 | NC(=O)c1sc2nc(N3CCC(NC[C@H](O)c4ccccn4)CC3)cc(C(F)(F)F)c2c1N |  | 0.93 |  | 0.69 |  | -0.15 | 0.86 | 0.11 | -0.64 | -0.12 | 0.54 |  |  | 0.88 |  |  |  | 0.49 | Growth Rate (U2OS; 0 h, replicate number 2): 0.65
13 | CC(=O)O.NCCCc1c(C(=O)O)[nH]c2ccc(C(=O)Nc3ccccc3)cc12 | 0.76 | 0.87 | 0.92 |  | 0.93 |  | 0.6 |  | 0.19 |  |  | 0.95 | 0.33 |  | 0.82 | 0.95 | 0.77 | 0.53 | Growth Rate (Fibroblast; 18 h, replicate number 2): 0.71; Growth Rate (HEK-293T; 0 h, replicate number 2): 0.53; Growth Rate (HEK-293T; 12 h, replicate number 2): 0.96; Growth Rate (HEK-293T; 18 h, replicate number 2): 0.93
14 | Cc1ncc(C(=O)Nc2cc(C(C)(C)C)on2)cc1-n1cc(-c2cnn(C)c2C)nn1.Cl | 0.8 |  |  | 0.92 |  | 0.58 | 0.92 | 0.23 | -0.6 | 0.94 |  | 0.69 | 0.14 | 0.95 | 0.79 |  | 0.95 |  | Growth Rate (HEK-293T; 6 h, replicate number 1): 0.99; Growth Rate (HEK-293T; 6 h, replicate number 2): 0.65
15 | O=C1CCCN1CCNc1nc(Nc2ccc(Cl)c(Cl)c2)ncc1C(F)(F)F | 0.32 | 0.24 | 0.25 |  | 0.37 |  |  |  | -0.87 |  | -0.25 |  | 0.95 | 0.62 | 0.41 | 0.65 | 0.45 | -1 | Growth Rate (Fibroblast; 18 h, replicate number 2): 0.48; Growth Rate (Fibroblast; 24 h, replicate number 1): 0.64; Growth Rate (HEK-293T; 0 h, replicate number 2): -1; Growth Rate (HEK-293T; 18 h, replicate number 1): 0.89; Growth Rate (HEK-293T; 24 h, replicate number 1): 0.78
16 | COC(=O)Nc1nc2c(s1)-c1c(c(-c3cccnc3)nn1-c1ccc(C3(N(C)C)CC3)cc1)CC2.Cl.Cl |  |  |  | 0.74 |  | 0.64 | -0.29 | -1 | -1 |  | 0.96 |  |  |  |  |  |  | -0.99 | 
17 | Cc1ccc(C(=O)Nc2cc(N3CCN(C)CC3)cc(C(F)(F)F)c2)cc1-n1cc(-c2cnn(C)c2C)nn1.Cl | 0.35 | 0.71 | 0.92 | 0.73 | 0.82 | 0.66 |  | 0.61 | -0.85 | 0.77 | 0.58 | 0.66 | -0.05 | 0.43 | 0.19 | 0.22 | 0.18 | 0.94 | Growth Rate (Fibroblast; 18 h, replicate number 2): 0.15; Growth Rate (Fibroblast; 24 h, replicate number 1): 0.44
18 | Cc1ccc(-n2nc(C(C)(C)C)cc2NC(=O)Nc2ccccc2F)cc1 | 0.9 | 0.91 | 0.79 |  | 0.72 | 0.85 |  |  | -0.4 | 0.67 | 0.72 | -0.08 | 0.02 | 0.68 | 0.82 | 0.86 |  |  | Growth Rate (U2OS; 0 h, replicate number 2): -0.52; Growth Rate (Fibroblast; 24 h, replicate number 1): 0.91
